Reference: ChEMBL document CHEMBL1201862, “PubChem BioAssay data set” (2004)
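Step 1: Grow cells in 96-well plates. Step 2: Expose to compound for 48 hours at 5 concentrations. Step 3: Interpolate endpoints linearly; if unreached, use highest concentration. Here, GI50 denotes the concentration required for 50% inhibition of growth.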 Active and inactive are the calls of the source. Rule as the data show it: active = GI50 up to about 1.1 µM and inactive = higher.

Tests used:
Assay in all cases: DTP human tumour cell line panel, 48 h
SF-539 = system: SF-539
K562 = system: K562
HCT-15 = system: HCT-15
M14 = system: M14
RPMI-8226 = system: RPMI-8226
OVCAR-5 = system: OVCAR-5
SN12C = system: SN12C
Malme-3M = system: Malme-3M
HCT-116 = system: HCT-116
SK-MEL-2 = system: SK-MEL-2
UACC-257 = system: UACC-257
HT-29 = system: HT-29
OVCAR-8 = system: OVCAR-8
HOP-92 = system: HOP-92
NCI-H23 = system: NCI-H23
MCF7 = system: MCF7
SNB-19 = system: SNB-19
UACC-62 = system: UACC-62
CAKI-1 = system: CAKI-1
CCRF-CEM = system: CCRF-CEM

Structure (SMILES)	GI50 (SF-539)	GI50 (K562)	GI50 (HCT-15)	GI50 (M14)	GI50 (RPMI-8226)	GI50 (OVCAR-5)	GI50 (SN12C)	GI50 (Malme-3M)	GI50 (HCT-116)	GI50 (SK-MEL-2)	GI50 (UACC-257)	GI50 (HT-29)	GI50 (OVCAR-8)	GI50 (HOP-92)	GI50 (NCI-H23)	GI50 (MCF7)	GI50 (SNB-19)	GI50 (UACC-62)	GI50 (CAKI-1)	GI50 (CCRF-CEM)
CN(C)Cc1cc(C(F)(F)F)ccc1C(O)(c1ccccc1)c1ccccc1	17 µM (inactive)	6.9 µM (inactive)	14.7 µM	12.4 µM (inactive)	5.51 µM (inactive)	14.4 µM (inactive)	15.4 µM (inactive)	15.2 µM (inactive)	13 µM (inactive)	18.3 µM (inactive)	11.6 µM (inactive)	5.05 µM (inactive)	17.9 µM (inactive)	13.6 µM (inactive)	26.2 µM (inactive)	14.3 µM (inactive)	16.7 µM (inactive)	13.2 µM (inactive)	12.8 µM (inactive)	6.92 µM (inactive)
CC1C(=O)N=C2C(=CN(Cc3ccccc3)c3ccccc32)C(=O)N1C (stereo not given)	> 100 µM (inactive)	1.44 µM (inactive)	> 100 µM	> 100 µM (inactive)	> 100 µM (inactive)	> 100 µM (inactive)	> 100 µM (inactive)	> 100 µM (inactive)	> 100 µM (inactive)	> 100 µM (inactive)	> 100 µM (inactive)	> 100 µM (inactive)	> 100 µM (inactive)	> 100 µM (inactive)	> 100 µM (inactive)	> 100 µM (inactive)	> 100 µM (inactive)	> 100 µM (inactive)	> 100 µM (inactive)	> 100 µM (inactive)
Cc1ccc(S(=O)(=O)N/N=C2\CCCCCCCCCCC2CN(C)C)cc1 (stereo not given)	17.1 µM (inactive)	13.2 µM (inactive)	15 µM	17.1 µM (inactive)	38.7 µM (inactive)	16.3 µM (inactive)	20.6 µM (inactive)	16.6 µM (inactive)	14.7 µM (inactive)	10.6 µM (inactive)	15 µM (inactive)	15.5 µM (inactive)	16.8 µM (inactive)	10.3 µM (inactive)	23 µM (inactive)	17 µM (inactive)	15.5 µM (inactive)	18.2 µM (inactive)	26.7 µM (inactive)	15.7 µM (inactive)
Cc1[nH]c2ncn(Nc3ccccc3)c(=N)c2c1Cc1ccccc1	> 100 µM (inactive)	0.0578 µM (active)	4.34 µM	0.162 µM (active)	> 60.7 µM (inactive)	11.2 µM (inactive)	> 80.5 µM (inactive)	> 38.7 µM (inactive)	0.522 µM (active)	0.142 µM (active)	0.462 µM (active)	2.6 µM (inactive)	32.9 µM (inactive)	33.1 µM (inactive)	31.8 µM (inactive)	5.45 µM (inactive)	> 51.3 µM (inactive)	0.0254 µM (active)	24.4 µM (inactive)	37.3 µM (inactive)
Cn1cnc([N+](=O)[O-])c1[Se]c1nc(N)nc2c1ncn2C1OC(CO)C(O)C1O (stereo not given)	> 100 µM (inactive)	> 100 µM (inactive)	> 100 µM	> 100 µM (inactive)	> 100 µM (inactive)	> 100 µM (inactive)	> 100 µM (inactive)	> 100 µM (inactive)	> 100 µM (inactive)	> 100 µM (inactive)	> 100 µM (inactive)	> 100 µM (inactive)	> 100 µM (inactive)	> 100 µM (inactive)	> 100 µM (inactive)	> 100 µM (inactive)	> 100 µM (inactive)	> 100 µM (inactive)	> 100 µM (inactive)	> 100 µM (inactive)
CCCCCCCCC/C=C1\CCC(CN2CCOCC2)C1=O (stereo not given)	1.86 µM (inactive)	2.45 µM (inactive)	2.47 µM	3.23 µM (inactive)	0.303 µM (active)	16.9 µM (inactive)	3.78 µM (inactive)	7.08 µM (inactive)	1.75 µM (inactive)	5.51 µM (inactive)	3.99 µM (inactive)	2.88 µM (inactive)	1.82 µM (inactive)	3.38 µM (inactive)	3.9 µM (inactive)	1.03 µM (active)	9.04 µM (inactive)	3.45 µM (inactive)	4.6 µM (inactive)	1.8 µM (inactive)
CCN(CC)CC1CCCCN1CC(=O)N1c2ccccc2NC(=O)c2ccccc21 (stereo not given)	> 100 µM (inactive)	79.3 µM (inactive)	> 100 µM	> 100 µM (inactive)	> 100 µM (inactive)	> 100 µM (inactive)	> 100 µM (inactive)	> 100 µM (inactive)	> 100 µM (inactive)	> 100 µM (inactive)	> 100 µM (inactive)	> 100 µM (inactive)	> 100 µM (inactive)	> 100 µM (inactive)	> 100 µM (inactive)	> 100 µM (inactive)	> 100 µM (inactive)	> 100 µM (inactive)	> 100 µM (inactive)	> 100 µM (inactive)
O=C(CCCCCCCCC(=O)NN1C(=O)/C(=C\c2ccc(O)c(O)c2)SC1c1ccc(Cl)cc1)NN1C(=O)/C(=C\c2ccc(O)c(O)c2)SC1c1ccc(Cl)cc1 (stereo not given)	13.4 µM (inactive)	21.6 µM (inactive)	13.4 µM	20.7 µM (inactive)	2.72 µM (inactive)	> 86.3 µM (inactive)	41.7 µM (inactive)	23.7 µM (inactive)	24.6 µM (inactive)	20.4 µM (inactive)	34 µM (inactive)	57.7 µM (inactive)	10.7 µM (inactive)	11.5 µM (inactive)	15.5 µM (inactive)	38.8 µM (inactive)	16.9 µM (inactive)	14.2 µM (inactive)	9.12 µM (inactive)	< 0.01 µM (active)
C=CCN1C(=O)CNC1=S	> 100 µM (inactive)	40.6 µM (inactive)	> 100 µM	> 100 µM (inactive)	> 100 µM (inactive)	> 100 µM (inactive)	> 100 µM (inactive)	> 100 µM (inactive)	> 100 µM (inactive)	> 100 µM (inactive)	> 100 µM (inactive)	> 100 µM (inactive)	> 100 µM (inactive)	> 100 µM (inactive)	> 100 µM (inactive)	> 100 µM (inactive)	> 100 µM (inactive)	> 100 µM (inactive)	> 100 µM (inactive)	5.35 µM (inactive)
Cc1cc2c(c(/C=N/c3ccc(N(C)C)cc3)c1)OC1(C=C2)Oc2ccccc2C(=O)N1C (stereo not given)	10 µM (inactive)	4.97 µM (inactive)	8.34 µM	14.5 µM (inactive)	5.96 µM (inactive)	17.7 µM (inactive)	15.7 µM (inactive)	17.7 µM (inactive)	8.22 µM (inactive)	> 39.2 µM (inactive)	14.7 µM (inactive)	23.1 µM (inactive)	14.2 µM (inactive)	16.4 µM (inactive)	12.5 µM (inactive)	16.2 µM (inactive)	7.96 µM (inactive)	13.1 µM (inactive)	14.6 µM (inactive)	2.71 µM (inactive)
O=C1c2cc([N+](=O)[O-])sc2C(=O)c2c([N+](=O)[O-])csc21	0.349 µM (active)	0.116 µM (active)	0.482 µM	0.367 µM (active)	0.282 µM (active)	1.65 µM (inactive)	0.542 µM (active)	0.274 µM (active)	0.456 µM (active)	1.53 µM (inactive)	0.386 µM (active)	1.17 µM (inactive)	0.785 µM (active)	0.29 µM (active)	0.711 µM (active)	0.365 µM (active)	1.63 µM (inactive)	0.378 µM (active)	1.11 µM (active)	0.0759 µM (active)
O=C1CCc2c(sc3ncnc(Nc4cccc(Br)c4)c23)C1	3.63 µM (inactive)	2.75 µM (inactive)	3.24 µM	3.42 µM (inactive)	2.58 µM (inactive)	6.98 µM (inactive)	3.4 µM (inactive)	1.76 µM (inactive)	3.56 µM (inactive)	6.89 µM (inactive)	3.55 µM (inactive)	12.1 µM (inactive)	3.26 µM (inactive)	2.54 µM (inactive)	3.01 µM (inactive)	3.93 µM (inactive)	4.12 µM (inactive)	3.72 µM (inactive)	2.09 µM (inactive)	2.08 µM (inactive)
N/C(=N\N/C=C1\C=Nc2cc(C(F)(F)F)ccc2C1=O)NO	> 10 µM (inactive)	7.67 µM (inactive)	> 10 µM	> 10 µM (inactive)	> 10 µM (inactive)	> 10 µM (inactive)	> 10 µM (inactive)	> 10 µM (inactive)	> 10 µM (inactive)	> 10 µM (inactive)	> 10 µM (inactive)	> 10 µM (inactive)	> 10 µM (inactive)	> 10 µM (inactive)	> 10 µM (inactive)	> 10 µM (inactive)	> 10 µM (inactive)	> 10 µM (inactive)	> 10 µM (inactive)	> 10 µM (inactive)
COC(=O)NCCc1n[nH]c2c1C(=O)C=C(OC)C2=O	19.4 µM (inactive)	17.5 µM (inactive)	28.4 µM	19.7 µM (inactive)	24.5 µM (inactive)	20.7 µM (inactive)	20.3 µM (inactive)	15.5 µM (inactive)	18.6 µM (inactive)	54.2 µM (inactive)	15 µM (inactive)	42.6 µM (inactive)	22 µM (inactive)	21.5 µM (inactive)	20 µM (inactive)	27.2 µM (inactive)	21.3 µM (inactive)	25.4 µM (inactive)	24.5 µM (inactive)	21.1 µM (inactive)
